Experimental data taken from US20250002480A1, “AMINOHETEROARYL KINASE INHIBITORS” (ALLORION THERAPEUTICS INC, priority 2021, published 2025).

Experiments:
Type in all cases: biochemical
CDK6/Cyclin D1 = CDK6/Cyclin D1 (Homo sapiens, UniProt Q00534); test: CDK6/Cyclin D1 in vitro kinase inhibition (Biological Example 1 of WO2022/111621)
Procedure: (§1) Biological activity for representative compounds of the present disclosure were tested according to those described in Biological Example 1 in PCT/CN2021/133429, published as WO2022/111621 on Jun. 2, 2022.

CDK7/Cyclin H/MAT1 = CDK7/Cyclin H/MAT1 (Homo sapiens, UniProt P50613); test: CDK7/Cyclin H/MAT1 in vitro kinase inhibition (Biological Example 1 of WO2022/111621)
Chain of CDK7/Cyclin H/MAT1 (P50613 whole entry): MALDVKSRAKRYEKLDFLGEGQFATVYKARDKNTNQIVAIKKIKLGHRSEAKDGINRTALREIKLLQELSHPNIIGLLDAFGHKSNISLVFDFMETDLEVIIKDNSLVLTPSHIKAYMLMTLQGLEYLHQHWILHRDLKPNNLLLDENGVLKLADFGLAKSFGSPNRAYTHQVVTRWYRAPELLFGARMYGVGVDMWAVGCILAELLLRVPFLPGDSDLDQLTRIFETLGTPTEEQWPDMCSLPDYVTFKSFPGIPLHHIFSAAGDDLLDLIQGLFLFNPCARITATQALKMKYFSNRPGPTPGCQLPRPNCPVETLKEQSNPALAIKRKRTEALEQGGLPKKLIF
Chain of CDK7/Cyclin H/MAT1 (P51946 whole entry partner): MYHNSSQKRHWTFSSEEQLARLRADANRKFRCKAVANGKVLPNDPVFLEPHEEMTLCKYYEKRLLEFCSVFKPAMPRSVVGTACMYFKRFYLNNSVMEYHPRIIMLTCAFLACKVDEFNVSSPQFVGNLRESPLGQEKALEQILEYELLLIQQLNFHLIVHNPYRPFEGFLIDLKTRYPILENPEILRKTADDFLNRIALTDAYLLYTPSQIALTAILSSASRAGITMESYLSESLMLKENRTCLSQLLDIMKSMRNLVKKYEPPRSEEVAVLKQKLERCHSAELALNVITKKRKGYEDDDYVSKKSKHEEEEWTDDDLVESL
Chain of CDK7/Cyclin H/MAT1 (P51948 whole entry partner): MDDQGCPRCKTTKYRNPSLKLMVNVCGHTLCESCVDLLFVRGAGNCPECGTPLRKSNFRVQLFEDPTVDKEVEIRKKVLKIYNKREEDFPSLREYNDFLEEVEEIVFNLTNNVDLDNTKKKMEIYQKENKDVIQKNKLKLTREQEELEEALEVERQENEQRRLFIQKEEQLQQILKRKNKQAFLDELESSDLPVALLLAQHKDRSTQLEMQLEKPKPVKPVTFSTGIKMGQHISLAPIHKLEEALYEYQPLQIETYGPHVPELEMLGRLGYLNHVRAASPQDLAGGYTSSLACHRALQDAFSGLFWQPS
Procedure: as §1

CDK4/Cyclin D1 = CDK4/Cyclin D1 (Homo sapiens, UniProt P11802); test: CDK4/Cyclin D1 in vitro kinase inhibition (Biological Example 1 of WO2022/111621)
Chain of CDK4/Cyclin D1 (P11802 whole entry): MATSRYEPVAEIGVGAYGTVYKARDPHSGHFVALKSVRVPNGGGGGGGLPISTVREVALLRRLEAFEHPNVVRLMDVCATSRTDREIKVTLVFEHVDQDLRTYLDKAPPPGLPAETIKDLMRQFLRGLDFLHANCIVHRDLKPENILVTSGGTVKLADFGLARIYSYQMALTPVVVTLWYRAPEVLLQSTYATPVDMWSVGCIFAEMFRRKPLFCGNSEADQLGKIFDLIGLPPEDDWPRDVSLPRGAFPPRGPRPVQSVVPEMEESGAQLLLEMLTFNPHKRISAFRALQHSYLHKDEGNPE
Chain of CDK4/Cyclin D1 (P24385 whole entry partner): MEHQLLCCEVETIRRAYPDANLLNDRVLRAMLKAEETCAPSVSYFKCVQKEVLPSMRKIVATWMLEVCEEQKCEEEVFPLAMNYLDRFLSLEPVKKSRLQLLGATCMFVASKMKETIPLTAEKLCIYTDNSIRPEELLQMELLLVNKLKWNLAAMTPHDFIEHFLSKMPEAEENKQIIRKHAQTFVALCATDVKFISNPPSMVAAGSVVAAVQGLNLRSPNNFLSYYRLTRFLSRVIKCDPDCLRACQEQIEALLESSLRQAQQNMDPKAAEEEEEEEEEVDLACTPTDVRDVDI
Procedure: as §1

CDK9/Cyclin T1 = CDK9/Cyclin T1 (Homo sapiens, UniProt P50750); test: CDK9/Cyclin T1 in vitro kinase inhibition (Biological Example 1 of WO2022/111621)
Chain of CDK9/Cyclin T1 (P50750 whole entry): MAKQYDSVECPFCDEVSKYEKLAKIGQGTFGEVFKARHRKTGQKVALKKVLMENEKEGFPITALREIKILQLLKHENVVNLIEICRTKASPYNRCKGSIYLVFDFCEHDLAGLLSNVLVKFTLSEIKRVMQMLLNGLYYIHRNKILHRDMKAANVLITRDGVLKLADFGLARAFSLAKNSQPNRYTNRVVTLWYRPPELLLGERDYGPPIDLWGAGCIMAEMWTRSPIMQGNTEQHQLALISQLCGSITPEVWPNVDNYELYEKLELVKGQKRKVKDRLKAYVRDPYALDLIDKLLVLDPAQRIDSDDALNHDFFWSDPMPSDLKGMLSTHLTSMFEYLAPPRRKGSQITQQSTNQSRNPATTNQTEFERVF
Chain of CDK9/Cyclin T1 (O60563 whole entry partner): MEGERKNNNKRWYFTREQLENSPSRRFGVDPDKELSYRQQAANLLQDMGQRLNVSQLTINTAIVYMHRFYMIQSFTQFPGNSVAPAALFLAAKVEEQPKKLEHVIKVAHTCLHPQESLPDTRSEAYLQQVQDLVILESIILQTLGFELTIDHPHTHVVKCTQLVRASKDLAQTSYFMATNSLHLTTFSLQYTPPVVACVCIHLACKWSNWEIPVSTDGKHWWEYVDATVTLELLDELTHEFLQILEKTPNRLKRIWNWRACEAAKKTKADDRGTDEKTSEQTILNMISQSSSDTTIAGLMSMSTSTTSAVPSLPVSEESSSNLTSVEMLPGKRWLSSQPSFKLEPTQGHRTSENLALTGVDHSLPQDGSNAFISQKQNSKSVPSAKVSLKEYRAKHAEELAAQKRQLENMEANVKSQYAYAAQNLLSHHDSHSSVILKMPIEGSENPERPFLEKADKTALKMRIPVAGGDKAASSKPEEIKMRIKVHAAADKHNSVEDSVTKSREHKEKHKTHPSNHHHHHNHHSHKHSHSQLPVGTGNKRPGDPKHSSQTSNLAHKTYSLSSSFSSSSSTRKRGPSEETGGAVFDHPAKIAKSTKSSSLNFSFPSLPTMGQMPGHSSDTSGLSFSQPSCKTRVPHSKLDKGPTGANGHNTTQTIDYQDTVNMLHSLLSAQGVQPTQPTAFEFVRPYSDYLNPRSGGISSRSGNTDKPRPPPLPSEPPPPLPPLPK
Procedure: as §1

Chain of CDK6/Cyclin D1 (Q00534 whole entry): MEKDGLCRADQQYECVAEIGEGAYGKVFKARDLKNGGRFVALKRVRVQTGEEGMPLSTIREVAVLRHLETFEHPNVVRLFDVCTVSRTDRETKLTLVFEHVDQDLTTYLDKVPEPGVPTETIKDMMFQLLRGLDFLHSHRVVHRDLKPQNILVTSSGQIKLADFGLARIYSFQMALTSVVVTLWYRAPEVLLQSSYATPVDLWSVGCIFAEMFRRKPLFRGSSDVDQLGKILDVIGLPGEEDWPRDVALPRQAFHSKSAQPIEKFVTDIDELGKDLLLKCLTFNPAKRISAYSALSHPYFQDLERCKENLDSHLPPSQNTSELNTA
Chain of CDK6/Cyclin D1 (P24385 whole entry partner): as the sequence (P24385 whole entry partner) above

| IC50 (CDK6/Cyclin D1) [nM] | IC50 (CDK7/Cyclin H/MAT1) [nM] | IC50 (CDK4/Cyclin D1) [nM] | IC50 (CDK9/Cyclin T1) [nM] | Structure (SMILES) |
| --- | --- | --- | --- | --- |
| ≥ 1000 | ≥ 1000 | ≥ 1000 |  | [2H]C([2H])([2H])NS(=O)(=O)c1ccc(Nc2ncc(C(F)(F)F)c(O[C@H]3CCOC[C@H]3O)n2)cc1 [Compound E2] |
| ≥ 1000 |  |  |  | [2H]C([2H])([2H])NS(=O)(=O)c1ccc(Nc2ncc(C(F)(F)F)c(O[C@@H]3CCOC[C@H]3O)n2)cc1 [Compound E3] |
| ≥ 1000 | ≥ 1000 | ≥ 1000 |  | [2H]C([2H])([2H])NS(=O)(=O)c1ccc(Nc2ncc(C(F)(F)F)c(O[C@H]3CCOC[C@@H]3O)n2)cc1 [Compound E4] |
|  | ≥ 1000 |  | ≥ 1000 | NS(=O)(=O)c1ccc(Nc2ncc(C(F)(F)F)c(O[C@@H]3CCOC[C@@H]3O)n2)cc1 [Compound E7, 4-((4-(((3S,4R)-3-hydroxytetrahydro-2H-pyran-4-yl)oxy)-5-(trifluoromethyl)pyrimidin-2-yl)amino)benzenesulfonamide] |
